Molecular target: prolyl 4-hydroxylase beta polypeptide (P4HB) (Homo sapiens, UniProt P07237)
Assay: surface plasmon resonance (Biacore […])
Format: binding

Chain of prolyl 4-hydroxylase beta polypeptide (P4HB) (P07237 18-508): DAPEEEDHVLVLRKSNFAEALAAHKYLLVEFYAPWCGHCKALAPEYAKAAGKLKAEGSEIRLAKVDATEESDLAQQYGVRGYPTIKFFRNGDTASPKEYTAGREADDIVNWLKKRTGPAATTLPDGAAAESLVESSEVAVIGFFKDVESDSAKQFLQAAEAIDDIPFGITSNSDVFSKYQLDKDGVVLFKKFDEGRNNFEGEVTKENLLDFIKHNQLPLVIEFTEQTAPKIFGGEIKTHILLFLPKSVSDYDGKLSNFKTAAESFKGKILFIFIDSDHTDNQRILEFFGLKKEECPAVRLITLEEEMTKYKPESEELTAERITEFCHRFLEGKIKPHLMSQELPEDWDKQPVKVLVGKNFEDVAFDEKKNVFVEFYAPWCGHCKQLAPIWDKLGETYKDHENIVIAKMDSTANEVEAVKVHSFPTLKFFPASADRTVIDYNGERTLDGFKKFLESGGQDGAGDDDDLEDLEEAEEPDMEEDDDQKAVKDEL

- Kd: 13.8 µM
Compound: OC[C@H]1O[C@@H](OCCc2ccc(O)cc2)[C@H](O)[C@@H](O)[C@@H]1O [SAL, Salidroside]

From article PMC7532676, “Salidroside can target both P4HB-mediated inflammation and melanogenesis of the skin” (Theranostics, 2020)
